Assay results: ChEMBL document CHEMBL3785042, “Discovery of MK-8831, A Novel Spiro-Proline Macrocycle as a Pan-Genotypic HCV-NS3/4a Protease Inhibitor” (ACS Med Chem Lett, 2016); call rule not given here

Key:
[1] = Inhibition of HCV genotype 1b NS3/4A protease A156T mutant using Ac-C(Eu)DDMEEAbu[COO]ASK(QSY7)-amide as substrate preincubated for 30 mins followed by substrate addition measured after 2.5 hrs by TRF assay; design: species or system Hepatitis C virus subtype 1b
[2] = Inhibition of HCV genotype 1b NS3/4A protease A156V mutant using Ac-C(Eu)DDMEEAbu[COO]ASK(QSY7)-amide as substrate preincubated for 30 mins followed by substrate addition measured after 2.5 hrs by TRF assay; design: species or system Hepatitis C virus subtype 1b
[3] = Inhibition of HCV genotype 1b NS3/4A protease D168Y mutant using Ac-C(Eu)DDMEEAbu[COO]ASK(QSY7)-amide as substrate preincubated for 30 mins followed by substrate addition measured after 2.5 hrs by TRF assay; design: species or system Hepatitis C virus subtype 1b
[4] = AUC (0 to 24 hrs) in rat at 5 mg/kg, po; assay type: ADME, organism-based; design: dose 5 mg/kg, time < 24 hr, route oral; details: in vivo
[5] = Inhibition of HCV genotype 1a NS3/4A protease using Ac-C(Eu)DDMEEAbu[COO]ASK(QSY7)-amide as substrate preincubated for 30 mins followed by substrate addition measured after 2.5 hrs by TRF assay; design: species or system Hepatitis C virus subtype 1a
Hepatitis C virus [6] = test: Antiviral activity against HCV genotype 1b infected in human HuH7 cells assessed as inhibition of viral replication after 72 hrs by RT-PCR method; assay type: functional, organism-based, Hepacivirus hominis; details: Huh-7, 72 h
Hepatitis C virus [7] = test: Antiviral activity against HCV genotype 2a infected in human HuH7 cells assessed as inhibition of viral replication after 72 hrs by RT-PCR method; assay type: functional, organism-based, Hepacivirus hominis; details: Huh-7, 72 h
Hepatitis C virus [8] = test: Antiviral activity against HCV genotype 2b infected in human HuH7 cells assessed as inhibition of viral replication after 72 hrs by RT-PCR method; assay type: functional, organism-based, Hepacivirus hominis; details: Huh-7, 72 h
Hepatitis C virus [9] = test: Antiviral activity against HCV genotype 3a infected in human HuH7 cells assessed as inhibition of viral replication after 72 hrs by RT-PCR method; assay type: functional, organism-based, Hepacivirus hominis; details: Huh-7, 72 h
Hepatitis C virus [10] = test: Antiviral activity against HCV genotype 1a infected in human HuH7 cells assessed as inhibition of viral replication after 72 hrs by RT-PCR method in presence of 100% normal human serum; assay type: functional, Hepacivirus hominis; details: subtype 1a, Huh-7, 72 h
Hepatitis C virus [11] = test: Antiviral activity against HCV genotype 1b infected in human HuH7 cells assessed as inhibition of viral replication after 72 hrs by RT-PCR method in presence of 100% normal human serum; assay type: functional, Hepacivirus hominis; details: Huh-7, 72 h
Hepatitis C virus [12] = test: Antiviral activity against HCV genotype 2a infected in human HuH7 cells assessed as inhibition of viral replication after 72 hrs by RT-PCR method in presence of 100% normal human serum; assay type: functional, Hepacivirus hominis; details: Huh-7, 72 h
Hepatitis C virus [13] = test: Antiviral activity against HCV genotype 3a infected in human HuH7 cells assessed as inhibition of viral replication after 72 hrs by RT-PCR method in presence of 100% normal human serum; assay type: functional, Hepacivirus hominis; details: Huh-7, 72 h
[14] = Oral bioavailability in rat at 5 mg/kg; assay type: ADME, organism-based; details: in vivo
Cytochrome P450 3A4 = Cytochrome P450 3A4 (Homo sapiens, UniProt P08684); test: Inhibition of CYP3A4 (unknown origin) up to 50 uM; assay type: ADME
Cytochrome P450 2C9 = Cytochrome P450 2C9 (Homo sapiens, UniProt P11712); test: Inhibition of CYP2C9 (unknown origin) up to 50 uM; assay type: ADME
Cytochrome P450 2D6 = Cytochrome P450 2D6 (Homo sapiens, UniProt P10635); test: Inhibition of CYP2D6 (unknown origin) up to 50 uM; assay type: ADME
Salmonella typhimurium = test: Mutagenicity in Salmonella typhimurium by Ames test; assay type: toxicity, organism-based; details: salmonella enterica subsp. enterica serovar typhimurium
Cytochrome P450 2C8 = target: T1, Cytochrome P450 2C8 (Homo sapiens, UniProt P10632); test: Inhibition of CYP2C8 (unknown origin) up to 20 uM; assay type: ADME
T1 sequence (P10632 whole entry): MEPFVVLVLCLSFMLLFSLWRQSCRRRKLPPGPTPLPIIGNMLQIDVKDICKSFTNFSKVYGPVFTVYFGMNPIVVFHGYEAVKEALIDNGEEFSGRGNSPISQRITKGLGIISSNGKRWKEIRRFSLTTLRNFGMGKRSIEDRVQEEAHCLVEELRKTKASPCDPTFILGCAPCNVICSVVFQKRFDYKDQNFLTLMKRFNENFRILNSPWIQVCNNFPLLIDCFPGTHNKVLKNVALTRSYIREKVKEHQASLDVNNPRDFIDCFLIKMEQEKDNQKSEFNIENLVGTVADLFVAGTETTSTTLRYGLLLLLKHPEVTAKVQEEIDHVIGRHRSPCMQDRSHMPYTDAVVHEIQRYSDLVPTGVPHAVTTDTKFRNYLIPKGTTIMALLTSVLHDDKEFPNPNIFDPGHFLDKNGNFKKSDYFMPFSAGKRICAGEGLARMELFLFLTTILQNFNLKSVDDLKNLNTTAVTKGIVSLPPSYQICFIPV

Rattus norvegicus [15] = test: Toxicity in telemetered rat up to 40 mg/kg; assay type: organism-based; details: in vivo
Canis familiaris [16] = test: Toxicity in conscious telemetered dog assessed as effect on heart rate; assay type: organism-based, Canis lupus familiaris; details: in vivo
Canis familiaris [17] = test: Toxicity in conscious telemetered dog assessed as effect on blood pressure; assay type: organism-based, Canis lupus familiaris; details: in vivo
Canis familiaris [18] = test: Toxicity in conscious telemetered dog assessed as effect on ECG parameters; assay type: organism-based, Canis lupus familiaris; details: in vivo
Canis familiaris [19] = test: Toxicity in conscious telemetered dog assessed as effect on respiratory function; assay type: organism-based, Canis lupus familiaris; details: in vivo
Canis familiaris [20] = test: Toxicity in conscious telemetered dog assessed as effect on body temperature; assay type: organism-based, Canis lupus familiaris; details: in vivo
Rattus norvegicus [21] = test: Toxicity in rat at 40 mg/kg/day measured for 3 days of dosing; assay type: organism-based; details: in vivo, 72 h
Liver = test: Drug uptake in rat liver at 40 mg/kg/day; assay type: ADME, organism-based; details: in vivo, read-out: Drug uptake
Rattus norvegicus [22] = test: Hepatotoxicity in rat at 134 uM measured for 3 days of dosing; assay type: toxicity, organism-based; details: in vivo, 72 h
[23] = Oral bioavailability in dog at 1 mg/kg; assay type: ADME, organism-based, Canis lupus familiaris; details: in vivo
Rattus norvegicus [24] = species: Rattus norvegicus; test: Protein binding in rat; assay type: ADME, organism-based; details: in vivo
Canis familiaris [25] = species: Canis familiaris; test: Protein binding in dog; assay type: ADME, organism-based, Canis lupus familiaris; details: in vivo
Canis familiaris [26] = test: Toxicity in telemetered dog up to 40 mg/kg; assay type: organism-based, Canis lupus familiaris; details: in vivo
Hepatitis C virus [27] = test: Antiviral activity against HCV genotype 1a infected in human HuH7 cells assessed as inhibition of viral replication after 72 hrs by RT-PCR method; assay type: functional, organism-based, Hepacivirus hominis; details: subtype 1a, Huh-7, 72 h
[28] = Inhibition of HCV genotype 1b full length NS3/4A protease using Ac-C(Eu)DDMEEAbu[COO]ASK(QSY7)-amide as substrate preincubated for 30 mins followed by substrate addition measured after 2.5 hrs by TRF assay; design: species or system Hepatitis C virus subtype 1b
[29] = Inhibition of HCV genotype 3a full length NS3/4A protease using Ac-C(Eu)DDMEEAbu[COO]ASK(QSY7)-amide as substrate preincubated for 30 mins followed by substrate addition measured after 2.5 hrs by TRF assay; design: species or system Hepatitis C virus subtype 3a
[30] = target: Hepatitis C virus serine protease, NS3/NS4A (Hepatitis C virus, UniProt A3EZI9+D2K2A8, R155K); test: Inhibition of HCV genotype 1b NS3/4A protease R155K mutant using Ac-C(Eu)DDMEEAbu[COO]ASK(QSY7)-amide as substrate preincubated for 30 mins followed by substrate addition measured after 2.5 hrs by TRF assay; design: species or system Hepatitis C virus subtype 1b

COc1ccc2nc(C(F)(F)F)c3c(c2c1)CC[C@]1(C[C@H]2C(=O)N[C@]4(C(=O)NS(=O)(=O)C5(C)CC5)C[C@H]4/C=C\CCCCC[C@H](NC(=O)OCC(C)C)C(=O)N2C1)O3
IC50 [1]: 0.483 nM
IC50 [2]: 2.76 nM
IC50 [3]: 0.023 nM
AUC(0-t) at 24 h [4]: 9 µM·h
IC50 [5]: 9 pM
EC50 (Hepatitis C virus [6]): 0.8 nM
EC50 (Hepatitis C virus [7]): 0.9 nM
EC50 (Hepatitis C virus [8]): 3.4 nM
EC50 (Hepatitis C virus [9]): 1.7 nM
EC90 (Hepatitis C virus [10]): 68 nM
EC90 (Hepatitis C virus [11]): 20 nM
EC90 (Hepatitis C virus [12]): 60 nM
EC90 (Hepatitis C virus [13]): 90 nM
bioavailability [14]: 31%
inhibition (INH) (Cytochrome P450 3A4): Not Active
inhibition (INH) (Cytochrome P450 2C9): Not Active
inhibition (INH) (Cytochrome P450 2D6): Not Active
Activity (Salmonella typhimurium): Non-toxic
inhibition (INH) (Cytochrome P450 2C8): Not Active
Activity (Rattus norvegicus [15]): Non-toxic
Activity (Canis familiaris [16]): Non-toxic
Activity (Canis familiaris [17]): Non-toxic
Activity (Canis familiaris [18]): Non-toxic
Activity (Canis familiaris [19]): Non-toxic
Activity (Canis familiaris [20]): Non-toxic
Activity (Rattus norvegicus [21]): Non-toxic
concentration (Liver): 134 µM
Activity (Rattus norvegicus [22]): Non-toxic
bioavailability [23]: 17%
PB (Rattus norvegicus [24]): Active
PB (Canis familiaris [25]): Active
Activity (Canis familiaris [26]): Non-toxic
EC50 (Hepatitis C virus [27]): 0.7 nM
IC50 [28]: 4 pM
IC50 [29]: 0.41 nM
IC50 [30]: 0.01 nM
